From US7217423B2, “Revitalising active complex for the skin” (Coty B.V., priority 2001, dated 2007) come the findings set out here.

The test system of test [1] is cell homogenate of epithelial cells. Nature of the test: oxygraphy: stimulation of oxygen consumption. It counts as cell-based. The conditions noted are these: control = 100%. The text has this:
Another synergy could be observed with regard to oxygraphy, i.e. the stimulation of the oxygen consumption of a cell homogenate of epithelial cells.

The test system of test [2] is dermal fibroblasts obtained from explanted normal human skin. Nature of the test: in-vitro anti-stress test under UV activity (LDH). As to conditions: control group = 100%, mean of 5 tests. It counts as cell-based. As to the method: In this test, a culture of dermal fibroblasts obtained from explanted normal human skin is subjected to UV-induced stress. The amounts of the enzyme lacticodes-hydrogenase (LDH) produced as a consequence of the aforesaid stress are proportional to the cell damage caused. The culture medium contained, for example, 3 wt. % of glycogen (Dermo-saccharides GY®), and a series of control tests without the aforesaid additive was carried out for comparative purposes.

Regarding `CN(CC(=O)O)C(=N)N` [creatine, N-carbamidoyl-N-methylglycine], the oxygen consumption in test [1] (2 wt. % creatine added to control liquid (buffer)) is on record as 119%. The “protection of cells after UV radiation” value in test [2] (2 wt. % creatine in culture liquid) is 110%.
Regarding glycogen, in test [1] (3 wt. % glycogen added to control liquid (buffer)), the oxygen consumption amounted to 135%. Besides, the “protection of cells still alive after UV radiation” value in test [2] (3 wt. % glycogen in culture medium, 4 days after UV radiation) was determined as 128%.
